From ChEMBL document CHEMBL5370531, “Design, synthesis and pharmacological evaluation of 2,3-dihydrobenzofuran IRAK4 inhibitors for the treatment of diffuse large B-cell lymphoma” (Eur J Med Chem, 2023) come the findings set out here.

Molecules are shown by their SMILES.

Series [1] has as its target T1, Interleukin-1 receptor-associated kinase 4 (Homo sapiens, UniProt Q9NWZ3).
T1 sequence (Q9NWZ3 whole entry): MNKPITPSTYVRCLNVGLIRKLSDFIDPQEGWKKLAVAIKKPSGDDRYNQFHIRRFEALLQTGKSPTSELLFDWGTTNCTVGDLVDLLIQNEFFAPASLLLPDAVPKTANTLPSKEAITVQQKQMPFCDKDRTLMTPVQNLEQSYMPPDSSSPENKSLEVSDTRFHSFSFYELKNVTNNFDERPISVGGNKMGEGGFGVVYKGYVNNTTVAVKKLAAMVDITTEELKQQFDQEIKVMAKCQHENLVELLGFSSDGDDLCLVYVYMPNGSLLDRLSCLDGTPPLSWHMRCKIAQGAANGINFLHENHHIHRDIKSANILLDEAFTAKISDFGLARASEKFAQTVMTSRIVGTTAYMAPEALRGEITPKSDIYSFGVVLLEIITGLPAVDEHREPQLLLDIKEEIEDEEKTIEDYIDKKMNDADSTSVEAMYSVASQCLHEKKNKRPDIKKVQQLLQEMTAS
As to the kind of experiment: Inhibition of IRAK4 (unknown origin) by Z-LYTE enzymatic kinase assay.

The test system of the next series is OCI-Ly10. As to the kind of experiment: Cytotoxicity against human OCILY10 cells assessed as inhibition of cell proliferation incubated for 72 hrs by CCK-8 assay. The series is classed as functional, cell-based. Conditions: OCI-Ly10, 72 h. In general terms: Tetrazolium dyes change colour on reduction, which living cells bring about.
The next series relates to U2932. Put plainly: Cytotoxicity against human U2932 cells assessed as inhibition of cell proliferation incubated for 72 hrs by CCK-8 assay. It is filed as functional, cell-based. Conditions: U2932, 72 h.
A short description of series [2]: Cytotoxicity against human GM00637 cells assessed as inhibition of cell proliferation incubated for 72 hrs by CCK-8 assay. The series is classed as toxicity, cell-based.

Take `Cc1cc(-c2cc3c(cc2NC(=O)c2coc(-c4ccnc(N)c4)n2)CC(C)(C)O3)cc(C)n1`: the IC50 (as a rule, the concentration needed to halve the response being measured) in series [1] is over 100 nM.
The same measure, in the same setting: the same measure for `CC1(C)Cc2cc(NC(=O)c3coc(-c4ccnc(N)c4)n3)c(N3CCC(CN)CC3)cc2O1`: 14 nM.
Same read-out and setting: the same measure for `CC1(C)Cc2cc(NC(=O)c3coc(-c4ccnc(N)c4)n3)c(-c3ccc(C(F)(F)F)nc3)cc2O1`: 25.3 nM.
In the case of `CC1(C)Cc2cc(NC(=O)c3coc(-c4ccnc(N)c4)n3)c(N3CCC(CO)CC3)cc2O1`, the results for the IC50 (with OCI-Ly10; in series [1]) were 336 nM and 2.1 nM, respectively.
In series [1], `CC1(C)Cc2cc(NC(=O)c3coc(-c4ccnc(N)c4)n3)c(N3CCC(C(C)(C)O)CC3)cc2O1` came in with an IC50 of 60.9 nM.
In series [1], `CC(C)n1cc(-c2cc3c(cc2NC(=O)c2coc(-c4ccnc(N)c4)n2)CC(C)(C)O3)cn1` yielded an IC50 of 24.7 nM.
On the same count and under the same terms, the same measure for `CC1(C)Cc2cc(NC(=O)c3coc(N4CC[C@@H](N)C4)n3)c(N3CCC(CO)CC3)cc2O1`: 65.9 nM; for `CC1(C)Cc2cc(NC(=O)c3coc(-c4ccnc(N)c4)n3)c(N3CCN(CCO)CC3)cc2O1`: 7.4 nM; for `CC1(C)Cc2cc(NC(=O)c3cccc(-c4ccnc(N)c4)n3)c(N3CCC(CO)CC3)cc2O1`: over 100 nM.
Turning to `CC1(C)Cc2cc(NC(=O)c3cnn4cccnc34)c(N3CCOCC3)cc2O1`, inhibition in series [1] was half-maximal at 6.1 nM (IC50).
With `CC1(C)Cc2cc(NC(=O)c3coc(-c4ccnc(N)c4)n3)c(-c3ccnc(C(F)(F)F)c3)cc2O1`, the 50% inhibitory concentration (IC50) in series [1] was over 100 nM.
In the case of `CC1(C)Cc2cc(NC(=O)c3cnn4cccnc34)c(N3CCC(CO)CC3)cc2O1`, the figures for the half-maximal inhibitory concentration (IC50) (with OCI-Ly10; in series [1]) were 12400 nM and 2.9 nM, respectively.
With `CC1(C)Cc2cc(NC(=O)c3coc(-c4ccncc4)n3)c(N3CCC(CO)CC3)cc2O1`, the IC50 in series [1] came out at 22.1 nM.
With `CC1(C)Cc2cc(NC(=O)c3cccc(-c4ccc(N)nc4)n3)c(N3CCC(CO)CC3)cc2O1`, the IC50 in series [1] was over 100 nM.
Same read-out and setting: the result for `CC1(C)Cc2cc(NC(=O)c3coc(-c4ccnc(N)c4)n3)c(N3CCN(CC(N)=O)CC3)cc2O1` reads 11.6 nM.
On to `Cc1cc(-c2nc(C(=O)Nc3cc4c(cc3N3CCC(CO)CC3)OC(C)(C)C4)co2)ccn1`, for which the 50% inhibitory concentration (IC50) in series [1] was over 100 nM.
In the case of `CC1(C)Cc2cc(NC(=O)c3cccc(N4CC[C@@H](N)C4)n3)c(N3CCC(CO)CC3)cc2O1`, in series [1], the half-inhibitory concentration (IC50) is over 100 nM.
In the case of `CC1(C)Cc2cc(NC(=O)c3coc(N4CCC[C@@H](N)C4)n3)c(N3CCC(CO)CC3)cc2O1`, in series [1], the half-inhibitory concentration (IC50) is over 100 nM.
On to `CC1(C)Cc2cc(NC(=O)c3coc(-c4ccnc(N)c4)n3)c(N3CCOCC3)cc2O1`, for which the figures for the IC50 (with OCI-Ly10; in the series with U2932; in series [1]) were 109 nM, 181 nM and 2.6 nM, respectively. Further, in series [2], the IC50 at 72 h was 312 nM.
The matching figures for `CC1(C)Cc2cc(NC(=O)c3coc(-c4ccnc(N)c4)n3)c(-c3cncnc3)cc2O1`: 669 nM, 2090 nM, 12.7 nM and 4630 nM.
`CC1(C)Cc2cc(NC(=O)c3coc(-c4ccnc(N)c4)n3)c(-c3ccnc(C#N)c3)cc2O1` displayed an IC50 in series [1] of over 100 nM.
Compound `COc1cc(-c2cc3c(cc2NC(=O)c2coc(-c4ccnc(N)c4)n2)CC(C)(C)O3)ccn1` showed a half-maximal inhibitory concentration (IC50) in series [1] of 22.8 nM.
Same read-out and setting: the result for `CC1(C)Cc2cc(NC(=O)c3coc(-c4ccnc(N)c4)n3)c(N3CCC(C(N)=O)CC3)cc2O1` reads 28.5 nM.
`Cc1ccc(-c2cc3c(cc2NC(=O)c2coc(-c4ccnc(N)c4)n2)CC(C)(C)O3)cn1`: the IC50 in the series with OCI-Ly10 is 3160 nM; in the series with U2932, over 50000 nM; in series [1], 12.8 nM. Moreover, the IC50 at 72 h in series [2] is over 50000 nM.
`CC1(C)Cc2cc(NC(=O)c3coc(-c4ccnc(N)c4)n3)c(-c3ccc(C#N)nc3)cc2O1`: in series [1], the IC50 is 42.1 nM.
In the case of `Cc1ncc(-c2cc3c(cc2NC(=O)c2coc(-c4ccnc(N)c4)n2)CC(C)(C)O3)cn1`, the 50% inhibitory concentration (IC50) in the series with OCI-Ly10 is 823 nM; with U2932 it was 5180 nM; in series [1] it was 14 nM. The IC50 at 72 h in series [2] was over 50000 nM.
`Cn1cc(-c2cccc(C(=O)Nc3cc4c(cc3N3CCC(CO)CC3)OC(C)(C)C4)n2)cn1` had a concentration for half-maximal inhibition (IC50) in series [1] of 73.8 nM.
Compound `CCn1cc(-c2cc3c(cc2NC(=O)c2coc(-c4ccnc(N)c4)n2)CC(C)(C)O3)cn1` returned an IC50 in series [1] of 18.5 nM.
`CC1(C)Cc2cc(NC(=O)c3coc(-c4ccnc(N)c4)n3)c(-c3ccoc3)cc2O1`: the 50% inhibitory concentration (IC50) in the series on OCI-Ly10 stood at 401 nM; in the series with U2932, 2450 nM; in series [1] it was 10.2 nM. The half-inhibitory concentration (IC50) at 72 h in series [2] is over 50000 nM.
`COc1ccc(-c2cc3c(cc2NC(=O)c2coc(-c4ccnc(N)c4)n2)CC(C)(C)O3)cn1` gave a concentration for half-maximal inhibition (IC50) in series [1] of 26.8 nM.
`CC(=O)Nc1cc(-c2nc(C(=O)Nc3cc4c(cc3N3CCC(CO)CC3)OC(C)(C)C4)co2)ccn1` displayed a concentration for half-maximal inhibition (IC50) in series [1] of 62.7 nM.
Still for that read-out and setting: the result for `Cc1cc(-c2cc3c(cc2NC(=O)c2coc(-c4ccnc(N)c4)n2)CC(C)(C)O3)ccn1` reads 30.3 nM.
On the same count and under the same terms, the result for `CC1(C)Cc2cc(NC(=O)c3cccc(N4CCC[C@@H](N)C4)n3)c(N3CCC(CO)CC3)cc2O1` reads over 100 nM; that for `CC1(C)Cc2cc(NC(=O)c3coc(-c4ccnc(N)c4)n3)c(N3CCC(O)CC3)cc2O1`, 32.7 nM.
In series [1], `Cc1noc(C)c1-c1cc2c(cc1NC(=O)c1coc(-c3ccnc(N)c3)n1)CC(C)(C)O2` displayed a 50% inhibitory concentration (IC50) of over 100 nM.
